This note sets out measurements from patent US20160304557A1, “Method for preventing or treating heart diseases by using a composition containing an isolated peptide” (Tunghai University, priority 2014, published 2016).

In one test the test system is Bcl-2 protein. The test is described as follows: Western blot of Bcl-2 in heart tissue of high-fat diet mice. It is filed as in vivo, C57BL/6 mice. Conditions: groups 3 to 5 (5, 10, 25 mg/kg/day intraperitoneally) in comparison of group 2 (high-fat diet, saline). As to the method: (§1) The male C57BL/6 mice at the age of 6 weeks were divided into 5 groups for 8 mice in each group. […]
(§2) Protein concentration of the extract was determined by Lowry's protein assay method. […]
(§3) The protein extraction of the mice heart tissues from the each group in example 2 were processed by the western blot method in example 3 to observe the expressions of related apoptosis regulatory proteins in the mice heart tissues from the each group. The results were shown at FIGS. 2 and 3, wherein the tubulin was used for an internal control in FIG. 2 and the expression levels of related apoptosis regulatory proteins were calculated basing on the expression level of tubulin in each figure of FIG. 3.
On the technique in general: In western blotting, separated proteins are transferred to a membrane and probed.

The subject of a further test is cytochrome C. The test is described as follows: Western blot of cytochrome C in heart tissue of high-fat diet mice. The test is classed as in vivo, C57BL/6 mice. The settings on record: groups 3 to 5 (5, 10, 25 mg/kg/day intraperitoneally) in comparison of group 2. As to the method:
as §1, §2, §3

The subject of a further test is caspase-3. The test is described as follows: Western blot of activated caspase-3 in heart tissue of high-fat diet mice. Conditions: groups 3 to 5 (5, 10, 25 mg/kg/day intraperitoneally) in comparison of group 2. The test is classed as in vivo, C57BL/6 mice. As to the method:
as §1, §2, §3

The test system of test [1] is nuclear factor of activated T-cells C3 (NFTA-C3). The test is described as follows: Western blot of NFTA-C3 in heart tissue of high-fat diet mice. The test is classed as in vivo, C57BL/6 mice. Conditions: groups 3 to 5 (5, 10, 25 mg/kg/day intraperitoneally) in comparison of group 2. As to the method: as §1, §2
(§4) The protein extraction of the mice heart tissues from the each group in example 2 were processed by the western blot method in example 3 to observe the expressions of nuclear factor of activated T-cells C3 (NFTA-C3) and calcineurin in the mice heart tissues from the each group. The results were shown at FIGS. 4 and 5, wherein the tubulin was used for an internal control in FIG. 4 and the expression levels of NFTA-C3 and calcineurin were calculated basing on the expression level of tubulin in each figure of FIG. 5.

The test system of test [2] is STAT-3, IL-6, MEK-5 and ERK-5. The test is described as follows: Western blot of related signal transduction proteins of heart hypertrophy in heart tissue of high-fat diet mice. The test is classed as in vivo, C57BL/6 mice. Conditions: STAT-3, IL-6, MEK-5, ERK-5, groups 3 to 5 (5, 10, 25 mg/kg/day intraperitoneally) versus group 2. As to the method:
as §1, §2
The protein extraction of the mice heart tissues from the each group in example 2 were processed by the western blot method in example 3 to observe the expressions of the related signal transduction proteins of heart hypertrophy including: STAT-3, IL-6, MEK-5 and ERK-5. The results were shown at FIGS. 6 and 7, wherein the tubulin was used for an internal control in FIG. 6 and the expression levels of the related signal transduction proteins of heart hypertrophy in the mice heart tissues from each group was calculated basing on the expression level of tubulin in FIG. 7.

Another test relates to ANP. The test is described as follows: Western blot of ANP in heart tissue of high-fat diet mice. The test is classed as in vivo, C57BL/6 mice. Conditions: groups 3 to 5 (5, 10, 25 mg/kg/day intraperitoneally) in comparison of group 2. On the procedure: as §1, §2
(§5) The protein extraction of the mice heart tissues from the each group in example 2 were processed by the western blot method in example 3 to observe the expressions of the indicator of heart hypertrophy and heart failure. The results were shown at FIGS. 12 and 13, wherein the tubulin was used for an internal control in FIG. 12 and the expression levels of the ANP and BNP in the mice heart tissues from the each group was calculated basing on the expression level of tubulin in each figures of FIG. 13.

The test system of the next test is JNK. The test is described as follows: Western blot of JNK in heart tissue of high-fat diet mice. The test is classed as in vivo, C57BL/6 mice. Conditions: groups 3 to 5 (5, 10, 25 mg/kg/day intraperitoneally) versus group 2. As to the method:
(§6) The male C57BL/6 mice at the age of 6 weeks were divided into 5 groups for 8 mice in each group. The each group of mice were feed at 24±2° C. of temperature, humidity of 55±10% and 12/12 light cycle for 8 weeks, wherein the group 1 was control group on a normal diet (PMI Nutrition International, Brentwood, Mo., USA) and injected 0.9% saline intraperitoneally; the group 2 was fed high-fat diet to induce the mice into heart hypertrophy model and injected 0.9% saline intraperitoneally; the group 3 was fed high-fat diet and the peptide of SEQ ID NO.:1 was injected intraperitoneally with the dose of 5 mg/kg/day; the group 4 was fed high-fat diet and the peptide of SEQ ID NO.:1 was injected intraperitoneally with the dose of 10 mg/kg/day; the group 5 was fed high-fat diet and the peptide of SEQ ID NO.:1 was injected intraperitoneally with the dose of 25 mg/kg/day. […]
as §2
(§7) The protein extraction of the mice heart tissues from the each group in example 2 were processed by the western blot method in example 3 to observe the expressions of p38α protein and JNK. The results were shown at FIGS. 8 and 9, wherein the tubulin was used for an internal control in FIG. 8 and the expression levels of p38α protein and JNK were calculated basing on the expression level of tubulin in each figure of FIG. 9.

Test [3] deals with FGF-2, ERK-1, UPA, MMP-2 and MMP-9. The test is described as follows: Western blot of related proteins of cardiac fibrosis pathway in heart tissue of high-fat diet mice. Conditions: MMP-2, MMP-9, groups 3 to 5 (5, 10, 25 mg/kg/day intraperitoneally) versus group 2. It is filed as in vivo, C57BL/6 mice. As to the method: as §1, §2
The protein extraction of the mice heart tissues from the each group in example 2 were processed by the western blot method in example 3 to observe the expressions of the related proteins of cardiac fibrosis pathway including: FGF-2, ERK-1, UPA, MMP-2 and MMP-9. The results were shown at FIGS. 10 and 11, wherein the tubulin was used for an internal control in FIG. 10 and the expression levels of FGF-2, ERK-1, UPA, MMP-2 and MMP-9 in the mice heart tissues from the each group was calculated basing on the expression level of tubulin in each figures of FIG. 11.

The test system of a further test is BNP. The test is described as follows: Western blot of BNP in heart tissue of high-fat diet mice. The test is classed as in vivo, C57BL/6 mice. The settings on record: groups 3 to 5 (5, 10, 25 mg/kg/day intraperitoneally) in comparison of group 2. On the procedure: as §1, §2, §5
For another test, the system named is calcineurin. The test is described as follows: Western blot of calcineurin in heart tissue of high-fat diet mice. It is filed as in vivo, C57BL/6 mice. The settings on record: groups 3 to 5 (5, 10, 25 mg/kg/day intraperitoneally) in comparison of group 2. As to the method:
as §1, §2, §4

A further test deals with p38α protein. The test is described as follows: Western blot of p38α protein in heart tissue of high-fat diet mice. It is filed as in vivo, C57BL/6 mice. The settings on record: groups 3 to 5 (5, 10, 25 mg/kg/day intraperitoneally) versus group 2. On the procedure:
as §6, §2, §7

The test system of a further test is myocardial cells. The test is described as follows: H&E stained section of heart tissues of high-fat diet mice. The test is classed as in vivo. Conditions: groups 3 and 4 (15 and 25 mg/kg/day intraperitoneally) in comparison with group 2. On the procedure: The male C57BL/6 mice at the age of 6 weeks were divided into 5 groups for 8 mice in each group. The each group of mice were feed at 24±2° C. of temperature, humidity of 55±10% and 12/12 light cycle for 8 weeks, wherein the group 1 was control group on a normal diet (PMI Nutrition International, Brentwood, Mo., USA) and injected 0.9% saline intraperitoneally; the group 2 was fed high-fat diet to induce the mice into heart hypertrophy model and injected 0.9% saline intraperitoneally; the group 3 was fed high-fat diet and the peptide of SEQ ID NO.:1 was injected intraperitoneally with the dose of 5 mg/kg/day; the group 4 was fed high-fat diet and the peptide of SEQ ID NO.:1 was injected intraperitoneally with the dose of 10 mg/kg/day; the group 5 was fed high-fat diet and the peptide of SEQ ID NO.:1 was injected intraperitoneally with the dose of 25 mg/kg/day. The injection period of each group of mice was between the third week to the sixth week of feeding period. The high-fat diet contained 60% of energy as fat.
The feeding method was the same with example 1. Mice were divided into 4 groups for feeding at different conditions. The intraperitoneal injection was performed between the third week and the sixth week of the feeding period. […]

Regarding “SEQ ID NO.: 1: isolated peptide which amino acid sequence is SEQ ID NO.: 1; extracted from organisms, separated by hydrolysis or chemical synthesis (VHVV)”, the “expression levels of Bcl-2 in the heart cell” value with Bcl-2 protein is recorded as “obviously increased”. Besides, the “expression levels of cytochrome C in the heart cell” value in the test with cytochrome C is on record as “obviously decreased”. Further, the “expression levels of activated caspase-3 in the heart cell” value in the test with caspase-3 is recorded as “obviously decreased”. Further, the “expression levels of NFTA-C3 in the heart cells” value in test [1] is “obviously decreased”. Moreover, the “expression levels of the related signal transduction proteins of heart hypertrophy in the heart tissues” value in [2] was “obviously lower”. Moreover, in the test with ANP, the “expression levels of ANP in the heart tissues” value is on record as “obviously decreased”. The “expression levels of JNK in the heart cells” value in the test with JNK is listed as “significantly lower”. In addition, in test [3], the “related proteins of cardiac fibrosis pathway in mice heart tissues” value is listed as “obviously lower”. Besides, the “expression levels of BNP in the heart tissues” value in the test on BNP was “obviously decreased”. The “expression levels of calcineurin in the heart cells” value in the test with calcineurin is “obviously decreased”. For the same substance, the “expression levels of p38α protein in the heart cells” value in the test with p38α protein is “significantly lower”. Moreover, the “arrangement of myocardial cells (H&E stained heart sections)” value in the test with myocardial cells is “more orderly and closely”.
